The source of these data is US11891387B2, “Monoacylglycerol lipase modulators” (Janssen Pharmaceutica NV, priority 2020, dated 2024).

human MGL from HeLa cells, sequence (Q99685 whole entry): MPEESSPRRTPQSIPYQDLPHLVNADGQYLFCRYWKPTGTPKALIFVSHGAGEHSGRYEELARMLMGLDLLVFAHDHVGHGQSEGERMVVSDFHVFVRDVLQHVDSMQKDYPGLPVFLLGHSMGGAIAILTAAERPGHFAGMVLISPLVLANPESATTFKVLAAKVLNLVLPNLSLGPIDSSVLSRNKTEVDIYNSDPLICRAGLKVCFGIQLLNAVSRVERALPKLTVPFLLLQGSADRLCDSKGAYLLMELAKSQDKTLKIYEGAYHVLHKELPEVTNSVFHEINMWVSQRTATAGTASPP

This assay concerns the target human MGL from HeLa cells (Homo sapiens (Human), UniProt Q99685). As to the kind of experiment: MGL in vitro activity assay: cleavage of [glycerol-1,3-3H]-oleyl glycerol, activated carbon filtration. Format: biochemical. The following applies: 300 nM [Glycerol-1,3-3H]-oleyl glycerol, endogenously expressed MGL from HeLa cells, one hour incubation. In a few lines: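 Endogenous human MGL from HeLa cells or homogenates was incubated with compound and 300 nM [glycerol-1,3-3H]-oleyl glycerol for one hour. Released [3H]-glycerol passing an activated carbon filter was counted as the measure of activity. Screening used 10 μM compound, with IC50 top concentration set empirically.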
For the compound `C[C@H]1c2nn(C)c(-c3cnn(C)c3C(F)(F)F)c2CCN1C(=O)c1ccc2ncsc2c1` [Example 59, (S)-Benzo[d]thiazol-6-yl(2,7-dimethyl-3-(1-methyl-5-(trifluoromethyl)-1H-pyrazol-4-yl)-2,4,5,7-tetrahydro-6H-pyrazolo[3,4-c]pyridin-6-yl)methanone], the IC50 was 2960 nM.
The figure for `COc1cc(C)cc(C(=O)N2[C@@H]3CCC[C@H]2c2nn(C)c(-c4cc(C(F)(F)F)nn4C)c2C3)c1` (stereo in doubt) [Example 77, (3-Methoxy-5-methylphenyl)((5R,9S)-2-methyl-3-(1-methyl-3-(trifluoromethyl)-1H-pyrazol-5-yl)-4,5,6,7,8,9-hexahydro-2H-5,9-epiminocycloocta[c]pyrazol-10-yl)methanone] is 26 nM; for `Cc1cccc2ncc(C(=O)N3CCc4c(nn(C)c4-c4cc(C(F)(F)F)nn4C)[C@@H]3C)n12` [Example 8, (S)-(2,7-Dimethyl-3-(1-methyl-3-(trifluoromethyl)-1H-pyrazol-5-yl)-2,4,5,7-tetrahydro-6H-pyrazolo[3,4-c]pyridin-6-yl)(5-methylimidazo[1,2-a]pyridin-3-yl)methanone] it is 8.9 nM.
As for `Cc1ccc(C(=O)N2[C@@H]3CCC[C@H]2c2nn(C)c(-c4cc(C)nn4C)c2C3)c(F)c1` (stereo in doubt) [Example 72, ((5R,9S)-3-(1,3-Dimethyl-1H-pyrazol-5-yl)-2-methyl-4,5,6,7,8,9-hexahydro-2H-5,9-epiminocycloocta[c]pyrazol-10-yl)(2-fluoro-4-methylphenyl)methanone], the half-maximal inhibitory concentration (IC50) worked out at 1130 nM.
`Cc1cc(C(=O)N2CCc3c(nn(C)c3-c3cc(C(F)(F)F)nn3C)[C@@H]2C)cc2scnc12` [Example 135, (S)-(2,7-Dimethyl-3-(1-methyl-3-(trifluoromethyl)-1H-pyrazol-5-yl)-2,4,5,7-tetrahydro-6H-pyrazolo[3,4-c]pyridin-6-yl)(4-methylbenzo[d]thiazol-6-yl)methanone] showed an IC50 of 22 nM.
In turn, `C[C@H]1c2nn(C)c(-c3cc(C(F)(F)F)nn3C)c2CCN1C(=O)c1cnn2cc(F)cc(F)c12` [Example 17, (S)-(4,6-Difluoropyrazolo[1,5-a]pyridin-3-yl)(2,7-dimethyl-3-(1-methyl-3-(trifluoromethyl)-1H-pyrazol-5-yl)-2,4,5,7-tetrahydro-6H-pyrazolo[3,4-c]pyridin-6-yl)methanone] yielded an IC50 of 20 nM.
Next, `COc1cccc(C(=O)N2[C@@H]3CCC[C@H]2c2nn(C)c(-c4cc(C(F)(F)F)nn4C)c2C3)c1C` (stereo in doubt) [Example 74, (3-Methoxy-2-methylphenyl)((5R,9S)-2-methyl-3-(1-methyl-3-(trifluoromethyl)-1H-pyrazol-5-yl)-4,5,6,7,8,9-hexahydro-2H-5,9-epiminocycloocta[c]pyrazol-10-yl)methanone]: 19 nM.
The compound `COc1cccc(C(=O)N2[C@@H]3CCC[C@H]2c2nn(C)c(-c4cc(C)nn4C)c2C3)c1C` (stereo in doubt) [Example 73, ((5R,9S)-3-(1,3-Dimethyl-1H-pyrazol-5-yl)-2-methyl-4,5,6,7,8,9-hexahydro-2H-5,9-epiminocycloocta[c]pyrazol-10-yl)(3-methoxy-2-methylphenyl)methanone] had an IC50 of 230 nM.
The figure for `C[C@H]1c2nn(C)c(-c3cc(C(F)(F)F)nn3C)c2CCN1C(=O)c1ccc2ncsc2c1` [Example 56, (S)-Benzo[d]thiazol-6-yl(2,7-dimethyl-3-(1-methyl-3-(trifluoromethyl)-1H-pyrazol-5-yl)-2,4,5,7-tetrahydro-6H-pyrazolo[3,4-c]pyridin-6-yl)methanone] is 26 nM.
The figure for `COc1cccc(C(=O)N2CCc3c(nn(C)c3-c3cc(C(F)(F)F)nn3C)[C@@H]2C)c1C` [Example 36, (S)-(2,7-Dimethyl-3-(1-methyl-3-(trifluoromethyl)-1H-pyrazol-5-yl)-2,4,5,7-tetrahydro-6H-pyrazolo[3,4-c]pyridin-6-yl)(3-methoxy-2-methylphenyl)methanone] is 23 nM.
Consider `C[C@H]1c2nn(C)c(-c3cc(C(F)(F)F)nn3C)c2CCN1C(=O)c1ccccc1C(F)(F)F` [Example 29, (S)-(2,7-Dimethyl-3-(1-methyl-3-(trifluoromethyl)-1H-pyrazol-5-yl)-2,4,5,7-tetrahydro-6H-pyrazolo[3,4-c]pyridin-6-yl)(2-(trifluoromethyl)phenyl)methanone], for which the 50% inhibitory concentration (IC50) is 150 nM.
The figure for `C[C@H]1c2nn(C)c(-c3cc(C(F)(F)F)n(C)n3)c2CCN1C(=O)c1ccc2ncccc2c1` [Example 63, (S)-(2,7-Dimethyl-3-(1-methyl-5-(trifluoromethyl)-1H-pyrazol-3-yl)-2,4,5,7-tetrahydro-6H-pyrazolo[3,4-c]pyridin-6-yl)(quinolin-6-yl)methanone] is 63 nM; for `COc1cccc(C(=O)N2[C@@H]3CC[C@H]2c2nn(C)c(-c4cc(C(F)(F)F)nn4C)c2C3)c1C` [Example 89, (3-Methoxy-2-methylphenyl)((5R,8S)-2-methyl-3-(1-methyl-3-(trifluoromethyl)-1H-pyrazol-5-yl)-2,4,5,6,7,8-hexahydro-5,8-epiminocyclohepta[c]pyrazol-9-yl)methanone] it is 66 nM; for `C[C@H]1c2nn(C)c(-c3cnn(C)c3C(F)(F)F)c2CCN1C(=O)c1nn(C)c2cc(F)cc(F)c12` [Example 27, (S)-(4,6-Difluoro-1-methyl-1H-indazol-3-yl)(2,7-dimethyl-3-(1-methyl-5-(trifluoromethyl)-1H-pyrazol-4-yl)-2,4,5,7-tetrahydro-6H-pyrazolo[3,4-c]pyridin-6-yl)methanone] it is 1170 nM.
`C[C@H]1c2nn(C)c(-c3cc(C(F)(F)F)nn3C)c2CCN1C(=O)c1cnc2ncsc2c1` [Example 123, (S)-(2,7-Dimethyl-3-(1-methyl-3-(trifluoromethyl)-1H-pyrazol-5-yl)-2,4,5,7-tetrahydro-6H-pyrazolo[3,4-c]pyridin-6-yl)(thiazolo[4,5-b]pyridin-6-yl)methanone] had an IC50 of 950 nM.
On to `Cn1nc(C(F)(F)F)cc1-c1c2c(nn1C)[C@@H]1CCC[C@H](C2)N1C(=O)c1ccc2c(c1)OCCC2` (stereo in doubt) [Example 75, Chroman-7-yl((5R,9S)-2-methyl-3-(1-methyl-3-(trifluoromethyl)-1H-pyrazol-5-yl)-4,5,6,7,8,9-hexahydro-2H-5,9-epiminocycloocta[c]pyrazol-10-yl)methanone], for which 44 nM corresponded to half-maximal inhibition (IC50).
Next, `C[C@H]1c2nn(C)c(-c3cnn(C)c3C(F)(F)F)c2CCN1C(=O)c1n[nH]c2cc(F)cc(F)c12` [Example 28, (S)-(4,6-Difluoro-1H-indazol-3-yl)(2,7-dimethyl-3-(1-methyl-5-(trifluoromethyl)-1H-pyrazol-4-yl)-2,4,5,7-tetrahydro-6H-pyrazolo[3,4-c]pyridin-6-yl)methanone]: 2120 nM.
In the case of `C[C@H]1c2nn(C)c(-c3cc(C(F)(F)F)nn3C)c2CCN1C(=O)c1cc2scnc2cn1` [Example 122, (S)-(2,7-Dimethyl-3-(1-methyl-3-(trifluoromethyl)-1H-pyrazol-5-yl)-2,4,5,7-tetrahydro-6H-pyrazolo[3,4-c]pyridin-6-yl)(thiazolo[4,5-c]pyridin-6-yl)methanone], the IC50 came out at 260 nM.
`C[C@H]1c2nn(C)c(-c3ccnn3CC3CC3)c2CCN1C(=O)c1ccc2ncccc2c1` [Example 71, (S)-(3-(1-(Cyclopropylmethyl)-1H-pyrazol-5-yl)-2,7-dimethyl-2,4,5,7-tetrahydro-6H-pyrazolo[3,4-c]pyridin-6-yl)(quinolin-6-yl)methanone]: the IC50 worked out at 7300 nM.
Next, `Cc1ccc2cc(C(=O)N3CCc4c(nn(C)c4-c4cc(C(F)(F)F)nn4C)[C@@H]3C)c(C)cc2n1` [Example 93, (S)-(2,7-Dimethyl-3-(1-methyl-3-(trifluoromethyl)-1H-pyrazol-5-yl)-2,4,5,7-tetrahydro-6H-pyrazolo[3,4-c]pyridin-6-yl)(2,7-dimethylquinolin-6-yl)methanone]: 1210 nM.
Next, `Cc1cc(C(=O)N2CCc3c(nn(C)c3-c3cc(C(F)(F)F)n(C)n3)[C@@H]2C)c2cc(F)ccc2n1` [Example 132, (S)-(2,7-Dimethyl-3-(1-methyl-5-(trifluoromethyl)-1H-pyrazol-3-yl)-2,4,5,7-tetrahydro-6H-pyrazolo[3,4-c]pyridin-6-yl)(6-fluoro-2-methylquinolin-4-yl)methanone]: 27 nM.
The figure for `Cc1c(C(=O)N2CCc3c(nn(C)c3-c3cc(C(F)(F)F)nn3C)[C@@H]2C)ccc2ncsc12` [Example 133, (S)-(2,7-Dimethyl-3-(1-methyl-3-(trifluoromethyl)-1H-pyrazol-5-yl)-2,4,5,7-tetrahydro-6H-pyrazolo[3,4-c]pyridin-6-yl)(7-methylbenzo[d]thiazol-6-yl)methanone] is 24 nM; for `Cc1nc2cc(F)ccc2cc1C(=O)N1CCc2c(nn(C)c2-c2cc(C(F)(F)F)nn2C)[C@@H]1C` [Example 24, (S)-(2,7-Dimethyl-3-(1-methyl-3-(trifluoromethyl)-1H-pyrazol-5-yl)-2,4,5,7-tetrahydro-6H-pyrazolo[3,4-c]pyridin-6-yl)(7-fluoro-2-methylquinolin-3-yl)methanone] it is 1760 nM.
In turn, `COc1cccc(C(=O)N2CCc3c(nn(C)c3-c3cc(C(F)(F)F)n(C)n3)[C@@H]2C)c1Cl` [Example 48, (S)-(2-Chloro-3-methoxyphenyl)(2,7-dimethyl-3-(1-methyl-5-(trifluoromethyl)-1H-pyrazol-3-yl)-2,4,5,7-tetrahydro-6H-pyrazolo[3,4-c]pyridin-6-yl)methanone] displayed an IC50 of 19 nM.
The figure for `C[C@H]1c2nn(C)c(-c3cc(C(F)(F)F)nn3C)c2CCN1C(=O)c1c[nH]c2cccc(F)c12` [Example 5, (S)-(2,7-dimethyl-3-(1-methyl-3-(trifluoromethyl)-1H-pyrazol-5-yl)-2,4,5,7-tetrahydro-6H-pyrazolo[3,4-c]pyridin-6-yl)(4-fluoro-1H-indol-3-yl)methanone] is 37 nM.

The term IC50 denotes the concentration that gives 50% inhibition. Higher therefore signals weaker potency.
